Values of other authors in paper PMC11904481 (ESMO Open, 2025).

Molecular target: ERK1/2 kinase
Settings: read-out: enzymatic IC50; cited from earlier work

O=C1Nc2cc3[nH]nc(-c4ccncc4)c3cc2CN1Cc1ccccc1 [KO-947]
IC50: 10 nM
